system: IL-1β production in PMA-differentiated THP-1 cells; experiment: IL-1β production in PMA-differentiated THP-1 cells stimulated with gramicidin (hTHP-1 assay, HTRF readout; Procedures 1-3); format: cell-based, human; conditions: Homo sapiens, THP-1, hTHP-1 assay containing 2% fetal bovine serum; average; class symbols; read-out: hTHP-1 IC50 (Average IC50 of compounds in hTHP-1 assay)
Description: The Following Protocol is Suitable for Testing the Activity of the Compounds Disclosed Herein. Procedure 1: IL-1B Production in PMA-Differentiated THP-1 Cells Stimulated with Gramicidin.
THP-1 cells were purchased from the American Type Culture Collection and sub-cultured according to instructions from the supplier. Cells were cultured in complete RPMI 1640 (containing 10% heat inactivated FBS, penicillin (100 units/ml) and streptomycin (100 μg/ml)), and maintained in log phase prior to experimental setup. Prior to the experiment, compounds were dissolved in dimethyl sulfoxide (DMSO) to generate a 30 mM stock. The compound stock was first pre-diluted in DMSO to 3, 0.34, 0.042 and 0.0083 mM intermediate concentrations and subsequently spotted using Echo550 liquid handler into an empty 384-well assay plate to achieve desired final concentration (e.g. 100, 33, 11, 3.7, 1.2, 0.41, 0.14, 0.046, 0.015, 0.0051, 0.0017 μM). DMSO was backfilled in the plate to achieve a final DMSO assay concentration of 0.37%. The plate was then sealed and stored at room temperature until required.
THP-1 cells were treated with PMA (Phorbol 12-myristate 13-acetate) (20 ng/ml) for 16-18 hours. On the day of the experiment the media was removed and adherent cells were detached with trypsin for 5 minutes. Cells were then harvested, washed with complete RPMI 1640, spun down, and resuspended in RPMI 1640 (containing 2% heat inactivated FBS, penicillin (100 units/ml) and streptomycin (100 μg/ml). The cells were plated in the 384-well assay plate containing the spotted compounds at a density of 50,000 cells/well (final assay volume 50 μl). Cells were incubated with compounds for 1 hour and then stimulated with gramicidin (5 μM) (Enzo) for 2 hours. Plates were then centrifuged at 340 g for 5 min. Cell free supernatant (40 μL) was collected using a 96-channel PlateMaster (Gilson) and the production of IL-1β was evaluated by HTRF (cisbio). The plates were incubated for 18 h at 4° C. and read using the preset HTRF program (donor emission at 620 nm, acceptor emission at 668 nm) of the SpectraMax i3x spectrophotometer (Molecular Devices, software SoftMax 6). A vehicle only control and a dose titration of CRID3 (100-0.0017 μM) were run concurrently with each experiment.
Procedure 2: IL-1β Production in PMA-Differentiated THP-1 Cells Stimulated with Gramicidin.
THP-1 cells were purchased from the American Type Culture Collection and sub-cultured according to instructions from the supplier. Prior to experiments, cells were cultured in complete RPMI 1640 (containing 10% heat inactivated FBS, penicillin (100 units/ml) and streptomycin (100 μg/ml)), and maintained in log phase prior to experimental setup. Prior to the experiment THP-1 were treated with PMA (Phorbol 12-myristate 13-acetate) (20 ng/ml) for 16-18 hours. Compounds were dissolved in dimethyl sulfoxide (DMSO) to generate a 30 mM stock.
On the day of the experiment the media was removed and adherent cells were detached with trypsin for 5 minutes. Cells were then harvested, washed with complete RPMI 1640, spun down, resuspended in RPMI 1640 (containing 2% heat inactivated FBS, penicillin (100 units/ml) and streptomycin (100 μg/ml). The cells were plated in a 384-well plate at a density of 50,000 cells/well (final assay volume 50 μl). Compounds were first dissolved in assay medium to obtain a 5× top concentration of 500 μM. 10 step dilutions (1:3) were then undertaken in assay medium containing 1.67% DMSO. 5× compound solutions were added to the culture medium to achieve desired final concentration (e.g. 100, 33, 11, 3.7, 1.2, 0.41, 0.14, 0.046, 0.015, 0.0051, 0.0017 μM). Final DMSO concentration was at 0.37%. Cells were incubated with compounds for 1 hour and then stimulated with gramicidin (5 μM) (Enzo) for 2 hours. Plates were then centrifuged at 340 g for 5 min. Cell free supernatant (40 μL) was collected using a 96-channel PlateMaster (Gilson) and the production of IL-1β was evaluated by HTRF (cisbio). […]

Row | Structure (SMILES) | IC50
1 | CNCc1ccc(S(N)(=O)=NC(=O)Nc2c3c(cc4c2CCC4)CCC3)c(F)c1 (centres unmarked) [Example 287, 2-fluoro-N′-((1,2,3,5,6,7-hexahydro-s-indacen-4-yl)carbamoyl)-4-((methylamino)methyl)benzene-sulfonimidamide] | 1000 to 5000 nM
2 | CC(C)c1cc(F)cc(C(C)C)c1NC(=O)N=S(N)(=O)c1ccc2c(c1)CCO2 (centres unmarked) [Example 211, N′-((4-fluoro-2,6-diisopropylphenyl)carbamoyl)-2,3-dihydrobenzofuran-5-sulfonimidamide] | 5000 to 30000 nM
3 | CN(C)Cc1ccc(S(N)(=O)=NC(=O)Nc2c3c(cc4c2CCC4)CCC3)cn1 (centres unmarked) [Example 276, 6-((Dimethylamino)methyl)-N′-(1,2,3,5,6,7-hexahydro-s-indacen-4-ylcarbamoyl)pyridine-3-sulfonimidamide] | 200 to 1000 nM
4 | CC(=O)N(C)Cc1ccc(S(N)(=O)=NC(=O)Nc2c3c(cc4c2CCC4)CCC3)cc1 (single isomer, unassigned) [Example 366, (R) or (S)-N-(4-(N′-((1,2,3,5,6,7-hexahydro-s-indacen-4-yl)carbamoyl)sulfamid-imidoyl)benzyl)-N-methylacetamide] | 1000 to 5000 nM
5 | COC1CN(Cc2ccc(S(N)(=O)=NC(=O)Nc3c4c(cc5c3CCC5)CCC4)cc2)C1 (centres unmarked) [Example 231] | 1000 to 5000 nM
6 | Cc1oc([S@](N)(=O)=NC(=O)Nc2c3c(cc4c2CCC4)CCC3)cc1C(C)(C)O (single isomer, unassigned) [Example 3] | 200 to 1000 nM
7 | CC(C)Cc1ccc(S(N)(=O)=NC(=O)Nc2c3c(cc4c2CCC4)CCC3)cn1 (single isomer, unassigned) [Example 416, (S) or (R)-N′-((1,2,3,5,6,7-hexahydro-s-indacen-4-yl)carbamoyl)-6-isobutylpyridine-3-sulfonimidamide] | 200 to 1000 nM
8 | CN1CCc2cc(S(N)(=O)=NC(=O)Nc3c4c(cc5c3CCC5)CCC4)ccc2C1 (centres unmarked) [Example 270, N′-((1,2,3,5,6,7-hexahydro-s-indacen-4-yl)carbamoyl)-2-methyl-1,2,3,4-tetrahydroisoquinoline-6-sulfonimidamide] | 1000 to 5000 nM

Results, then the compound that gave them:

Row | IC50 | Structure (SMILES)
10 | 1000 to 5000 nM | CC(C)c1cc(OC(F)F)cc(C2CC2)c1NC(=O)N=S(N)(=O)c1ccc(CN(C)C)cc1 (single isomer, unassigned) [Example 135, (R)- or (S)-N′-(2-cyclopropyl-4-(difluoromethoxy)-6-isopropylphenylcarbamoyl)-4-((dimethylamino)methyl)benzenesulfonimidamide]
11 | 40 to 200 nM | CC(C)(O)c1ncc(S(N)(=O)=NC(=O)Nc2c3c(c(C#N)c4c2CCC4)CCC3)s1 (centres unmarked) [Example 43, N′-(8-cyano-1,2,3,5,6,7-hexaliydro-s-indacen-4-ylcarbamoyl)-2-(2-hydroxypropan-2-yl)thiazole-5-sulfonimidamide]
12 | 1000 to 5000 nM | CC(C)c1cc(F)cc(C(C)C)c1NC(=O)N=S(N)(=O)c1cnc2ccccc2c1 (centres unmarked) [Example 218, N′-((4-fluoro-2,6-diisopropyl-phenyl)carbamoyl)quinoline-3-sulfonimidamide]
13 | 1000 to 5000 nM | CC(C)c1cc(F)cc(C(C)C)c1NC(=O)N=S(N)(=O)c1cccc(S(C)(=O)=O)c1 (centres unmarked) [Example 63, N′-((4-fluoro-2,6-diisopropylphenyl)carbaoyl)-3-(methylsulfonyl)benzenesulfonim idamide]
14 | 8 to 40 nM | CC(C)c1cc(OC(F)F)cc(C(C)C)c1NC(=O)N=S(N)(=O)c1sc(C(C)(C)O)cc1F (centres unmarked) [Example 17, N′-(4-(difluoromethoxy)-2,6-diisopropylphenylcarbamoyl)-3-fluoro-5-(2-hydroxypropan-2-yl)thiophene-2-sulfonimidamide]
15 | 200 to 1000 nM | CCc1cc(OC(F)F)cc(C(C)C)c1NC(=O)N=S(N)(=O)c1cnc(C(C)(C)O)s1 (centres unmarked) [Example 18, N′-(4-(difluoromethoxy)-2-ethyl-6-isopropylphenylcarbamoyl)-2-(2-hydroxypropan-2-yl)thiazole-5-sulfonimidamide]

same assay, conditions: Homo sapiens, THP-1, hTHP-1 assay containing 2% fetal bovine serum; average; given as bound; read-out: hTHP-1 IC50 (Average IC50 of compounds in hTHP-1 assay)

Row | Structure (SMILES) | IC50
16 | CC(C)Cc1ccc(S(N)(=O)=NC(=O)Nc2c3c(cc4c2CCC4)CCC3)cn1 (single isomer, unassigned) [Example 415, (R) or (S)-N′-((1,2,3,5,6,7-hexahydro-s-indacen-4-yl)carbamoyl)-6-isobutylpyridine-3-sulfonimidamide] | > 30000 nM
17 | CN1CCc2cc(S(N)(=O)=NC(=O)Nc3c4c(cc5c3CCC5)CCC4)ccc2C1 (single isomer, unassigned) [Example 396, (S) or (R)-N′-((1,2,3,5,6,7-hexahydro-s-indacen-4-yl)carbamoyl)-2-methyl-1,2,3,4-tetrahydroisoquinoline-6-sulfonimidamide] | > 30000 nM
18 | CC(=O)N(C)Cc1ccc(S(N)(=O)=NC(=O)Nc2c3c(cc4c2CCC4)CCC3)cc1 (single isomer, unassigned) [Example 365, (S) or (R)-N-(4-(N′-((1,2,3,5,6,7-hexahydro-s-indacen-4-yl)carbamoyl)sulfamid-imidoyl)benzyl)-N-methylacetamide] | > 30000 nM

More lines, now with the values ahead:

Row | IC50 | Structure (SMILES)
19 | > 30000 nM | CC(C)c1cc(F)cc(C(C)C)c1NC(=O)N=S(N)(=O)c1cc(Cl)sc1Cl (centres unmarked) [Example 214, 2,5-dichloro-N′-((4-fluoro-2,6-diisopropylphenyl)carbamoyl)thio-phene-3-sulfonimidamide]
20 | > 30000 nM | Cc1cc(C(C)(C)O)sc1S(N)(=O)=NC(=O)Nc1c(C(C)C)cc(OC(F)F)cc1C(C)C (single isomer, unassigned) [Example 110, (R)- or (S)-N′-(4-(difluoromethoxy)-2,6-diisopropylphenylcarbamoyl)-5-(2-hydroxypropan-2-yl)-3-methylthiophene-2-sulfonimidamide]
21 | > 30000 nM | CC(C)c1cc(F)cc(C(C)C)c1NC(=O)N=S(N)(=O)c1ccc(S(C)(=O)=O)cc1 (single isomer, unassigned) [Example 144, (S)- or (R)-N′-(4-fluoro-2,6-diisopropylphenylcarbamoyl)-4-(methylsulfonyl)-benzenesulfonimidamide]

same assay, conditions: hTHP-1 assay containing 2% fetal bovine serum; average; class symbols; read-out: hTHP-1 IC50 (Average IC50 of compounds in hTHP-1 assay)

Row | IC50 | Structure (SMILES)
22 | 5000 to 30000 nM | CN(C(=O)N=S(N)(=O)c1cnc(C(C)(C)O)s1)c1c2c(cc3c1CCC3)CCC2 (centres unmarked) [Example 248, N′-((1,2,3,5,6,7-hexahydro-s-indacen-4-yl)(methyl)carbamoyl)-2-(2-hydroxypropan-2-yl) thiazole-5-sulfonimidamide]

same assay, conditions: hTHP-1 assay containing 2% fetal bovine serum; average; given as bound; read-out: hTHP-1 IC50 (Average IC50 of compounds in hTHP-1 assay)

Row | IC50 | Structure (SMILES)
23 | > 30000 nM | CNS(=O)(=NC(=O)Nc1c2c(cc3c1CCC3)CCC2)c1ccc(CN(C)C)cc1 (single isomer, unassigned) [Example 384, (S) or (R)-4-((dimethylamino)methyl)-N′-((1,2,3,5,6,7-hexahydro-s-indacen-4-yl)carbamoyl)-N-methylbenzene-sulfonimidamide]
